In ChEMBL document CHEMBL3352001, “2,4-Dialkyl-8,9,10,11-tetrahydrobenzo[g]pyrimido[4,5-c]isoquinoline-1,3,7,12(2H,4H)-tetraones as new leads against Mycobacterium tuberculosis” (Eur J Med Chem, 2014):
Converted amounts (≈) assume the structure as drawn. “And” between values parts separate entries of the source, which are not always exact repeats. Equal values may be shown once. The source made the active and inactive calls. The rule behind the calls is not given here.

Each molecule was assayed on Mycobacterium tuberculosis (assay: Antimicrobial activity against multi-drug resistant Mycobacterium tuberculosis LAM-1 strain clinical isolate assessed as growth reduction by BACTEC_MGIT_960-TB detection system). Conditions: not given.
Assay type: functional
With `CC(C)n1c(=O)c2c3c(cnc2n(C(C)C)c1=O)C(=O)C1=C(C3=O)C2CCC1C2` (stereo not drawn) the MIC was 5 µg/mL (≈ 12.7 µM).

The molecules below were run on Mycobacterium tuberculosis (assay: Antimycobacterial activity against Mycobacterium tuberculosis H37Rv transformed with pSMT1 luciferase reporter plasmid assessed as growth inhibition after 6 days by luminometry). Conditions: not given.
Assay type: functional
`CC(C)C1CCc2ncc3c(c2C1=O)C(=O)C1=C(C3=O)C2CCC1C2` (stereo not drawn) gave a GI90 of 39.2 µg/mL (≈ 117 µM) and a GI99 of over 100 µg/mL. With `CC(C)n1c(=O)c2c3c(cnc2n(C(C)C)c1=O)C(=O)C1=C(C3=O)C2CCC1CC2` the GI90 was 2.32 µg/mL (≈ 5.69 µM) and the GI99 was 4.89 µg/mL. `CC(C)n1c(=O)c2c3c(cnc2n(C(C)C)c1=O)C(=O)C1=C(C3=O)C2CCC1C2` (stereo not drawn) was tested, and the GI90 was 1.5 µg/mL (≈ 3.81 µM) and the GI99 was 3 µg/mL. Molecule `CCCCCn1c(=O)c2c3c(cnc2n(CCCCC)c1=O)C(=O)C1=C(C3=O)C2CCC1C2` (stereo not drawn) has a GI90 of 4.09 µg/mL (≈ 9.1 µM) and a GI99 of 9.54 µg/mL. With `CC(C)CCn1c(=O)c2c3c(cnc2n(CCC(C)C)c1=O)C(=O)C1=C(C3=O)C2CCC1C2` (stereo not drawn) the GI90 was 8.11 µg/mL (≈ 18 µM) and the GI99 was 16.32 µg/mL. In the case of `CCCn1c(=O)c2c3c(cnc2n(CCC)c1=O)C(=O)C1=C(C3=O)C2CCC1CC2`, the GI90 is reported as 5.98 µg/mL (≈ 14.7 µM) and the GI99 is reported as 7.34 µg/mL. Molecule `Cn1c(=O)c2c3c(cnc2n(C)c1=O)C(=O)C1=C(C3=O)C2CCC1CC2` has a GI90 of 6.98 µg/mL (≈ 19.9 µM) and a GI99 of 15.43 µg/mL. `CCCCCn1c(=O)c2c3c(cnc2n(CCCCC)c1=O)C(=O)C1=C(C3=O)C2CCC1CC2` was tested, and the GI90 was 4.78 µg/mL (≈ 10.3 µM) and the GI99 was 13.37 µg/mL. With `CCn1c(=O)c2c3c(cnc2n(CC)c1=O)C(=O)C1=C(C3=O)C2CCC1C2` (stereo not drawn) the GI90 was 5.32 µg/mL (≈ 14.6 µM) and the GI99 was 9.21 µg/mL. Work on `CC(C)Cn1c(=O)c2c3c(cnc2n(CC(C)C)c1=O)C(=O)C1=C(C3=O)C2CCC1CC2` yielded a GI90 of 9.31 µg/mL (≈ 21.4 µM) and a GI99 of 12.28 µg/mL. `CCCCCCn1c(=O)c2c3c(cnc2n(CCCCCC)c1=O)C(=O)C1=C(C3=O)C2CCC1C2` (stereo not drawn) gave a GI90 of 5.43 µg/mL (≈ 11.4 µM) and a GI99 of 11.6 µg/mL. Molecule `CCCCCCCn1c(=O)c2c3c(cnc2n(CCCCCCC)c1=O)C(=O)C1=C(C3=O)C2CCC1CC2` has a GI90 of 3.78 µg/mL (≈ 7.27 µM) and a GI99 of 6.89 µg/mL. With `CCCCCCn1c(=O)c2c3c(cnc2n(CCCCCC)c1=O)C(=O)C1=C(C3=O)C2CCC1CC2` the GI90 was 6.13 µg/mL (≈ 12.5 µM) and the GI99 was 14.89 µg/mL. In the case of `CC(C)C1CCC(=O)c2c1ncc1c2C(=O)C2=C(C1=O)C1CCC2C1` (stereo not drawn), the GI99 is reported as 24.66 µg/mL and 48.06 µg/mL. Work on `CCCCn1c(=O)c2c3c(cnc2n(CCCC)c1=O)C(=O)C1=C(C3=O)C2CCC1CC2` yielded a GI90 of 5.2 µg/mL (≈ 11.9 µM) and a GI99 of 9.6 µg/mL. For `NNC(=O)c1ccncc1` [ISONIAZID], the GI99 was 0.04 µg/mL and 0.06 µg/mL. Molecule `CCCn1c(=O)c2c3c(cnc2n(CCC)c1=O)C(=O)C1=C(C3=O)C2CCC1C2` (stereo not drawn) has a GI90 of 4.28 µg/mL (≈ 10.9 µM) and a GI99 of 6.23 µg/mL. Molecule `CC(C)CCn1c(=O)c2c3c(cnc2n(CCC(C)C)c1=O)C(=O)C1=C(C3=O)C2CCC1CC2` has a GI90 of 10.33 µg/mL (≈ 22.3 µM) and a GI99 of 22.88 µg/mL. `Cn1c(=O)c2c3c(cnc2n(C)c1=O)C(=O)C1=C(C3=O)C2CCC1C2` (stereo not drawn) was tested, and the GI90 was 5.87 µg/mL (≈ 17.4 µM) and the GI99 was 10.43 µg/mL. `CCn1c(=O)c2c3c(cnc2n(CC)c1=O)C(=O)C1=C(C3=O)C2CCC1CC2` showed a GI90 of 4.33 µg/mL (≈ 11.4 µM) and a GI99 of 12.06 µg/mL. `CCCCn1c(=O)c2c3c(cnc2n(CCCC)c1=O)C(=O)C1=C(C3=O)C2CCC1C2` (stereo not drawn) gave a GI90 of 4.59 µg/mL (≈ 10.9 µM) and a GI99 of 7.23 µg/mL. `CC(C)Cn1c(=O)c2c3c(cnc2n(CC(C)C)c1=O)C(=O)C1=C(C3=O)C2CCC1C2` (stereo not drawn) was tested, and the GI90 was 5.3 µg/mL (≈ 12.6 µM) and the GI99 was 11.01 µg/mL. `CCCCCCCn1c(=O)c2c3c(cnc2n(CCCCCCC)c1=O)C(=O)C1=C(C3=O)C2CCC1C2` (stereo not drawn) gave a GI90 of 2.45 µg/mL (≈ 4.85 µM) and a GI99 of 5.57 µg/mL.

Same assay, conditions: Mycobacterium tuberculosis, H37Rv, 144 h
`CC(C)C1CCc2ncc3c(c2C1=O)C(=O)C1=C(C3=O)C2CCC1C2` (stereo not drawn) gave a GI50 of 20.4 µg/mL (≈ 60.8 µM). `CC(C)n1c(=O)c2c3c(cnc2n(C(C)C)c1=O)C(=O)C1=C(C3=O)C2CCC1CC2` was tested, and the GI50 was 0.73 µg/mL (≈ 1.79 µM). `CC(C)n1c(=O)c2c3c(cnc2n(C(C)C)c1=O)C(=O)C1=C(C3=O)C2CCC1C2` (stereo not drawn) was tested, and the GI50 was 0.52 µg/mL (≈ 1.32 µM). `CCCCCn1c(=O)c2c3c(cnc2n(CCCCC)c1=O)C(=O)C1=C(C3=O)C2CCC1C2` (stereo not drawn) showed a GI50 of 1.26 µg/mL (≈ 2.8 µM). `CC(C)CCn1c(=O)c2c3c(cnc2n(CCC(C)C)c1=O)C(=O)C1=C(C3=O)C2CCC1C2` (stereo not drawn) was tested, and the GI50 was 2.41 µg/mL (≈ 5.36 µM). `CCCn1c(=O)c2c3c(cnc2n(CCC)c1=O)C(=O)C1=C(C3=O)C2CCC1CC2` gave a GI50 of 2.59 µg/mL (≈ 6.36 µM). For `Cn1c(=O)c2c3c(cnc2n(C)c1=O)C(=O)C1=C(C3=O)C2CCC1CC2`, the GI50 was 2.83 µg/mL (≈ 8.05 µM). For `CCCCCn1c(=O)c2c3c(cnc2n(CCCCC)c1=O)C(=O)C1=C(C3=O)C2CCC1CC2`, the GI50 was 1.49 µg/mL (≈ 3.21 µM). `CCn1c(=O)c2c3c(cnc2n(CC)c1=O)C(=O)C1=C(C3=O)C2CCC1C2` (stereo not drawn) showed a GI50 of 1.69 µg/mL (≈ 4.63 µM). For `CC(C)Cn1c(=O)c2c3c(cnc2n(CC(C)C)c1=O)C(=O)C1=C(C3=O)C2CCC1CC2`, the GI50 was 4.36 µg/mL (≈ 10 µM). `CCCCCCn1c(=O)c2c3c(cnc2n(CCCCCC)c1=O)C(=O)C1=C(C3=O)C2CCC1C2` (stereo not drawn) was tested, and the GI50 was 1.22 µg/mL (≈ 2.55 µM). `CCCCCCCn1c(=O)c2c3c(cnc2n(CCCCCCC)c1=O)C(=O)C1=C(C3=O)C2CCC1CC2` was tested, and the GI50 was 1.32 µg/mL (≈ 2.54 µM). `CCCCCCn1c(=O)c2c3c(cnc2n(CCCCCC)c1=O)C(=O)C1=C(C3=O)C2CCC1CC2` gave a GI50 of 1.36 µg/mL (≈ 2.77 µM). With `CC(C)C1CCC(=O)c2c1ncc1c2C(=O)C2=C(C1=O)C1CCC2C1` (stereo not drawn) the GI50 was 5.55 µg/mL (≈ 16.5 µM). `CCCCn1c(=O)c2c3c(cnc2n(CCCC)c1=O)C(=O)C1=C(C3=O)C2CCC1CC2` showed a GI50 of 1.84 µg/mL (≈ 4.22 µM). `NNC(=O)c1ccncc1` [ISONIAZID] showed a GI50 of 0.01 µg/mL (≈ 0.0729 µM). `CCCn1c(=O)c2c3c(cnc2n(CCC)c1=O)C(=O)C1=C(C3=O)C2CCC1C2` (stereo not drawn) gave a GI50 of 1.73 µg/mL (≈ 4.4 µM). `CC(C)CCn1c(=O)c2c3c(cnc2n(CCC(C)C)c1=O)C(=O)C1=C(C3=O)C2CCC1CC2` showed a GI50 of 4.9 µg/mL (≈ 10.6 µM). `Cn1c(=O)c2c3c(cnc2n(C)c1=O)C(=O)C1=C(C3=O)C2CCC1C2` (stereo not drawn) gave a GI50 of 1.58 µg/mL (≈ 4.68 µM). `CCn1c(=O)c2c3c(cnc2n(CC)c1=O)C(=O)C1=C(C3=O)C2CCC1CC2` gave a GI50 of 2.55 µg/mL (≈ 6.72 µM). `CCCCn1c(=O)c2c3c(cnc2n(CCCC)c1=O)C(=O)C1=C(C3=O)C2CCC1C2` (stereo not drawn) showed a GI50 of 1.46 µg/mL (≈ 3.46 µM). For `CC(C)Cn1c(=O)c2c3c(cnc2n(CC(C)C)c1=O)C(=O)C1=C(C3=O)C2CCC1C2` (stereo not drawn), the GI50 was 2.08 µg/mL (≈ 4.93 µM). With `CCCCCCCn1c(=O)c2c3c(cnc2n(CCCCCCC)c1=O)C(=O)C1=C(C3=O)C2CCC1C2` (stereo not drawn) the GI50 was 0.63 µg/mL (≈ 1.25 µM).

These molecules were tested on Mycobacterium tuberculosis (assay: Antimicrobial activity against multi-drug resistant Mycobacterium tuberculosis LAM-1 strain clinical isolate assessed as critical concentration to induce 99% growth reduction at 10 to 20 ug/mL by BACTEC_MGIT_960-TB detection system). Conditions: not given.
Assay type: functional
Molecule `CC(C)n1c(=O)c2c3c(cnc2n(C(C)C)c1=O)C(=O)C1=C(C3=O)C2CCC1CC2` has an INH of 10 µg/mL. For `CC(C)n1c(=O)c2c3c(cnc2n(C(C)C)c1=O)C(=O)C1=C(C3=O)C2CCC1C2` (stereo not drawn), the INH was 5 µg/mL. In the case of `CCCCCCCn1c(=O)c2c3c(cnc2n(CCCCCCC)c1=O)C(=O)C1=C(C3=O)C2CCC1CC2`, the INH is reported as 10 µg/mL. `CCCCCCCn1c(=O)c2c3c(cnc2n(CCCCCCC)c1=O)C(=O)C1=C(C3=O)C2CCC1C2` (stereo not drawn) showed an INH of 10 µg/mL.

These molecules were tested on Mycobacterium tuberculosis (assay: Antimicrobial activity against multi-drug resistant Mycobacterium tuberculosis LAM-1 strain clinical isolate assessed as growth reduction at 0.1 ug/mL by BACTEC_MGIT_960-TB detection system). Conditions: not given.
Assay type: functional, organism-based
In the case of `NNC(=O)c1ccncc1` [ISONIAZID], the inhibition is reported as “inactive”.
